Assay results taken from the NIST ThermoML archive (doi:10.1016/j.jct.2015.12.031).
± gives the expanded uncertainty stated by the source.

Tests used:
[1] = Liquid; for speed of sound: Sing-around technique in a fixed-path interferometer; for mass density: Vibrating tube method
[2] = refractive index (Na D-line) (dimensionless); settings: Liquid, Standard Abbe refractometry
[3] = mn = molality of the nth substance listed, in mol/kg; settings: 86.5 kPa, Liquid, m2 = 0; for speed of sound: Frequency=3 MHz, Sing-around technique in a fixed-path interferometer; for mass density: Vibrating tube method
[4] = refractive index (Na D-line) (dimensionless); mn = molality of the nth substance listed, in mol/kg; settings: 86.5 kPa, Liquid, Standard Abbe refractometry, m2 = 0

CCCCCCCCn1cc[n+](C)c1.[Br-] [1-methyl-3-octylimidazolium bromide]
[1], 86.5 kPa, Frequency=3 MHz
Settings	speed of sound [m/s]
288.15 K	1605.2 ± 3.2
293.15 K	1581.9 ± 3.2
298.15 K	1561.9 ± 3.2
303.15 K	1542.8 ± 3.2

86.5 kPa
Settings	mass density, 288.15 K [kg/m3]	mass density, 293.15 K [kg/m3]	mass density, 298.15 K [kg/m3]	mass density, 303.15 K [kg/m3]	refractive index, 288.15 K	refractive index, 293.15 K	refractive index, 298.15 K	refractive index, 303.15 K
[1]	1179.37 ± 7.4	1176.17 ± 7.4	1172.98 ± 7.4	1169.86 ± 7.4	–	–	–	–
[2]	–	–	–	–	1.525 ± 0.0012	1.5236 ± 0.0012	1.5221 ± 0.0012	1.5206 ± 0.0012

CCCCCCn1cc[n+](C)c1.[Br-] [3-hexyl-1-methyl-1H-imidazolium bromide]
[1], 86.5 kPa, Frequency=3 MHz
Settings	speed of sound [m/s]
288.15 K	1639.4 ± 3.2
293.15 K	1610.4 ± 3.2
298.15 K	1587.1 ± 3.2
303.15 K	1568.7 ± 3.2

86.5 kPa
Settings	mass density, 288.15 K [kg/m3]	mass density, 293.15 K [kg/m3]	mass density, 298.15 K [kg/m3]	mass density, 303.15 K [kg/m3]	refractive index, 288.15 K	refractive index, 293.15 K	refractive index, 298.15 K	refractive index, 303.15 K
[1]	1231.02 ± 7.5	1227.43 ± 7.5	1223.74 ± 7.5	1220.35 ± 7.5	–	–	–	–
[2]	–	–	–	–	1.5282 ± 0.0012	1.5268 ± 0.0012	1.5254 ± 0.0012	1.5237 ± 0.0012

CCCCCCCC [octane]
[1], 86.5 kPa, Frequency=3 MHz
Settings	speed of sound [m/s]
288.15 K	1214.5 ± 5.1
293.15 K	1193.3 ± 5.1
298.15 K	1172.4 ± 5.1
303.15 K	1151.5 ± 5.1

86.5 kPa
Settings	mass density, 288.15 K [kg/m3]	mass density, 293.15 K [kg/m3]	mass density, 298.15 K [kg/m3]	mass density, 303.15 K [kg/m3]	refractive index, 288.15 K	refractive index, 293.15 K	refractive index, 298.15 K	refractive index, 303.15 K
[1]	706.994 ± 7.5	702.995 ± 7.5	698.923 ± 7.4	694.878 ± 7.4	–	–	–	–
[2]	–	–	–	–	1.3998 ± 0.0015	1.3973 ± 0.0015	1.3949 ± 0.0015	1.3924 ± 0.0015

CCCCCCCC [octane] + c1ccsc1
Settings	mass density, [3] [kg/m3]	refractive index, [4]	speed of sound, [3] [m/s]
288.15 K	706.994 ± 7.5	1.3998 ± 0.0015	1214.5 ± 5.1
293.15 K	702.995 ± 7.5	1.3973 ± 0.0015	1193.3 ± 5.1
298.15 K	698.923 ± 7.4	1.3949 ± 0.0015	1172.4 ± 5.1
303.15 K	694.878 ± 7.4	1.3924 ± 0.0015	1151.5 ± 5.1

c1ccsc1 [thiophene]
101.33 kPa
Settings	mass density, [1] [kg/m3]	refractive index, [2]	speed of sound, [1] [m/s]
298.15 K	1058.56 ± 7	1.5252 ± 0.0011	1279 ± 1.3
303.15 K	–	–	1258.7 ± 1.3
